Tested on: TEAD reporter-containing human breast cancer cell line MCF7
Assay: TEAD reporter (luciferase) assay
Format: cell-based
Settings: TEAD reporter MCF7 cells, 24 hours treatment, 1% serum media
Protocol: The TEAD reporter-containing human breast cancer cell line MCF7 (60618, BPS bioscience) was cultured according to the manufacturer's instructions. Cells were plated in 96-well white plates at a density of 30,000 per well and incubated overnight. The following day cells were treated with small molecules in 1% serum media (0.1% v/v DMSO). After 24 hours of the treatment, cell viability was evaluated by using CCK-8 reagent (CK04, Dojindo) and measuring absorbance at 450 nm. Then, the assay for luciferase activity was performed using Dual-Glo® Luciferase Assay System (Promega, E2940) following the manufacturer's instructions. Luminescence intensity was measured and the potency of the compounds was determined by IC50 value generated from non-linear regression analysis of the dose-response curves.
IC50 for luciferase activity are shown in the Table 1 below and designated within the following ranges. [+++: ≤0.1 μM, ++: >0.1 μM to ≤1 μM, +: >1 μM to ≤10 μM, −: >10 μM]

| Structure (SMILES) | IC50 |
| --- | --- |
| C=CC(=O)Nc1cnc2c(c1)c(-c1cccc(C(F)(F)F)c1)cn2C [Compound 54, N-(1-Methyl-3-(3-(trifluoromethyl)phenyl)-1H-pyrrolo[2,3-b]pyridin-5-yl)acrylamide] | ≤ 0.1 µM |
| C=CC(=O)Nc1cnc2c(c1)c(-c1ccc(Cl)c(F)c1)cn2C(F)F [Example 133, N-(3-(4-Chloro-3-fluorophenyl)-1-(difluoromethyl)-1H-pyrrolo[2,3-b]pyridin-5-yl)acrylamide] | 1 to 10 µM |
| C=CC(=O)Nc1ccc2c(c1)c(/C=C/c1ccc(Cl)cc1)cn2C(C)=O [Example 75, (E)-N-(1-Acetyl-3-(4-chlorostyryl)-1H-indol-5-yl)acrylamide] | > 10 µM |
| C=CC(=O)N(CC(=O)O)c1cnc2c(c1)c(/C=C/c1ccc(Cl)cc1)cn2C [Example 65, (E)-N-Acryloyl-N-(3-(4-chlorostyryl)-1-methyl-1H-pyrrolo[2,3-b]pyridin-5-yl)glycine] | > 10 µM |
| C=CC(=O)Nc1ccc2c(c1)c(/C=C/c1ccc(Cl)cc1)nn2C(C)C [Compound 6, (E)-N-(3-(4-Chlorostyryl)-1-isopropyl-1H-indazol-5-yl)acrylamide] | > 10 µM |
| C=CC(=O)Nc1cnc2c(c1)c(-c1ccc(CCCCCCCCC)cc1)cn2C [Example 112, N-(1-Methyl-3-(4-nonylphenyl)-1H-pyrrolo[2,3-b]pyridin-5-yl)acrylamide] | > 10 µM |
| C=CC(=O)Nc1cnc2c(c1)c(/C=C/c1cccc(OC)c1)cn2C [Compound 48, (E)-N-(3-(3-Methoxystyryl)-1-methyl-1H-pyrrolo[2,3-b]pyridin-5-yl)acrylamide] | 1 to 10 µM |
| C=CC(=O)Nc1cnc2c(c1)c(-c1cccc(C#N)c1)cn2C [Compound 56, N-(3-(3-Cyanophenyl)-1-methyl-1H-pyrrolo[2,3-b]pyridin-5-yl)acrylamide] | 1 to 10 µM |
| C=CC(=O)Nc1cnc2c(c1)c(-c1ccc(OC)cc1)cn2C [Example 90, N-(3-(4-Methoxyphenyl)-1-methyl-1H-pyrrolo[2,3-b]pyridin-5-yl)acrylamide] | 1 to 10 µM |
| C=CC(=O)Nc1cnc2c(c1)c(/C=C/C1CCOCC1)cn2C [Example 58, (E)-N-(1-Methyl-3-(2-(tetrahydro-2H-pyran-4-yl)vinyl)-1H-pyrrolo[2,3-b]pyridin-5-yl)acrylamide] | 0.1 to 1 µM |
| C=CC(=O)Nc1cnc2c(c1)c(/C=C/c1ccsc1)cn2C [Example 59, (E)-N-(1-Methyl-3-(2-(thiophen-3-yl)vinyl)-1H-pyrrolo[2,3-b]pyridin-5-yl)acrylamide] | 0.1 to 1 µM |
| C=CC(=O)Nc1cnc2ccn(Cc3ccc(F)cc3)c2c1 [Example 78, N-(1-(4-Fluorobenzyl)-1H-pyrrolo[3,2-b]pyridin-6-yl)acrylamide] | 0.1 to 1 µM |
| CN(C)C/C=C/C(=O)Nc1cnc2c(c1)c(-c1ccc(C(F)(F)F)cc1)cn2C [Example 120, (E)-4-(Dimethylamino)-N-(1-methyl-3-(4-(trifluoromethyl)phenyl)-1H-pyrrolo[2,3-b]pyridin-5-yl) but-2-enamide 2,2,2-trifluoroacetate] | 1 to 10 µM |
| C=CC(=O)Nc1ccc2c(c1)c(C1CCC(OC)CC1)cn2C (centres unmarked) [Example 126, N-(3-(4-Methoxycyclohexyl)-1-methyl-1H-indol-5-yl)acrylamide] | > 10 µM |
| C=CC(=O)Nc1ccc2c(c1)c(/C=C/c1ccc(Cl)cc1)cn2C1CCCC1 [Compound 11, (E)-N-(3-(4-Chlorostyryl)-1-cyclopentyl-1H-indol-5-yl)acrylamide] | 1 to 10 µM |
| C=CC(=O)Nc1cnc2c(c1)c(/C=C/C1CCC(F)(F)CC1)cn2C1CCCC1 [Compound 9, (E)-N-(1-Cyclopentyl-3-(2-(4,4-difluorocyclohexyl)vinyl)-1H-pyrrolo[2,3-b]pyridin-5-yl)acrylamide] | ≤ 0.1 µM |
| C=CC(=O)Nc1ccc2c(c1)c(/C=C/c1ccc(F)cc1)cn2C(C)C [Compound 29, (E)-N-(3-(4-Fluorostyryl)-1-isopropyl-1H-indol-5-yl)acrylamide] | > 10 µM |
| C=CC(=O)Nc1ccc2c(/C=C/c3ccc(Cl)cc3)cn(C)c2c1 [Compound 12, (E)-N-(3-(4-Chlorostyryl)-1-methyl-1H-indol-6-yl)acrylamide] | 0.1 to 1 µM |
| C=CC(=O)Nc1ccc2c(c1)c(C1=CCC(C)(C)CC1)cn2C [Example 124, N-(3-(4,4-dimethylcyclohex-1-en-1-yl)-1-methyl-1H-indol-5-yl)acrylamide] | ≤ 0.1 µM |
| Cn1cc(/C=C/c2ccc(Cl)cc2)c2cc(NC(=O)CC#N)cnc21 [Example 115, (E)-N-(3-(4-chlorostyryl)-1-methyl-1H-pyrrolo[2,3-b]pyridin-5-yl)-2-cyanoacetamide] | > 10 µM |
| C=CC(=O)Nc1cnc2c(c1)c(-c1ccc(C3CCCCC3)cc1)cn2C [Example 108, N-(3-(4-Cyclohexylphenyl)-1-methyl-1H-pyrrolo[2,3-b]pyridin-5-yl)acrylamide] | 0.1 to 1 µM |

| Structure (SMILES) | IC50 |
| --- | --- |
| C=CC(=O)Nc1cnc2c(c1)c(/C=C/c1ccc(Cl)cc1)cn2C(C)C [Compound 20, (E)-N-(3-(4-Chlorostyryl)-1-isopropyl-1H-pyrrolo[2,3-b]pyridin-5-yl)acrylamide] | 1 to 10 µM |
| C=CC(=O)Nc1cc(F)c2c(c1)c(/C=C/C1CCC(F)(F)CC1)cn2C(C)C [Compound 38, (E)-N-(3-(2-(4,4-Difluorocyclohexyl)vinyl)-7-fluoro-1-isopropyl-1H-indol-5-yl)acrylamide] | 1 to 10 µM |
| C=CC(=O)Nc1cnc2c(c1)c(-c1cccc(Oc3ccccc3)c1)cn2C [Example 94, N-(1-Methyl-3-(3-phenoxyphenyl)-1H-pyrrolo[2,3-b]pyridin-5-yl)acrylamide] | 0.1 to 1 µM |
| C=CC(=O)Nc1cnc2c(c1)c(-c1ccc(SC)cc1)cn2C [Compound 55, N-(1-Methyl-3-(4-(methylthio)phenyl)-1H-pyrrolo[2,3-b]pyridin-5-yl)acrylamide] | 0.1 to 1 µM |
| C=CC(=O)Nc1ccc2c(c1)c(/C=C/C1CCC(F)(F)CC1)nn2C1CCCC1 [Compound 7, (E)-N-(1-Cyclopentyl-3-(2-(4,4-difluorocyclohexyl)vinyl)-1H-indazol-5-yl)acrylamide] | 0.1 to 1 µM |
| C=CC(=O)Nc1cnc2c(c1)c(/C=C/c1cccs1)cn2C [Example 82, (E)-N-(1-Methyl-3-(2-(thiophen-2-yl)vinyl)-1H-pyrrolo[2,3-b]pyridin-5-yl)acrylamide] | 0.1 to 1 µM |
| C=CS(=O)(=O)Nc1cnc2c(c1)c(/C=C/c1ccc(Cl)cc1)cn2C [Example 116, (E)-N-(3-(4-Chlorostyryl)-1-methyl-1H-pyrrolo[2,3-b]pyridin-5-yl) ethenesulfonamide] | 0.1 to 1 µM |
| C=CC(=O)Nc1cnc2c(c1)c(-c1ccc(C#N)cc1)cn2C [Example 57, N-(3-(4-Cyanophenyl)-1-methyl-1H-pyrrolo[2,3-b]pyridin-5-yl)acrylamide] | 1 to 10 µM |
| C=CC(=O)Nc1cnc2c(c1)c(Cc1cccc(Cl)c1)cn2C [Example 136, N-(3-(3-Chlorobenzyl)-1-methyl-1H-pyrrolo[2,3-b]pyridin-5-yl)acrylamide] | ≤ 0.1 µM |
| C=CC(=O)Nc1cnc2c(c1)c(/C=C/C1CC1)cn2C [Example 60, (E)-N-(3-(2-Cyclopropylvinyl)-1-methyl-1H-pyrrolo[2,3-b]pyridin-5-yl)acrylamide] | 1 to 10 µM |
| Cn1cc(/C=C/c2ccc(Cl)cc2)c2cc(NS(C)(=O)=O)cnc21 [Example 117, (E)-N-(3-(4-Chlorostyryl)-1-methyl-1H-pyrrolo[2,3-b]pyridin-5-yl) methanesulfonamide] | 0.1 to 1 µM |
| C=CC(=O)Nc1ccc2c(c1)c(C1=CCC(OC)CC1)cn2C (centres unmarked) [Example 125, N-(3-(4-Methoxycyclohex-1-en-1-yl)-1-methyl-1H-indol-5-yl)acrylamide] | 1 to 10 µM |
| C=CC(=O)Nc1cnc2c(c1)c(CC1CCCCC1)cn2C [Example 138, N-(3-(Cyclohexylmethyl)-1-methyl-1H-pyrrolo[2,3-b]pyridin-5-yl)acrylamide] | ≤ 0.1 µM |
| C=CC(=O)Nc1cnc2c(c1)c(-c1cccc(CCC3CCC(F)(F)CC3)c1)cn2C [Example 86, N-(3-(3-(2-(4,4-Difluorocyclohexyl)ethyl)phenyl)-1-methyl-1H-pyrrolo[2,3-b]pyridin-5-yl)acrylamide] | 0.1 to 1 µM |
| C=CC(=O)Nc1cnc2c(c1)c(-c1ccc(N3CCCCC3)cc1)cn2C [Example 102, N-(1-Methyl-3-(4-(piperidin-1-yl)phenyl)-1H-pyrrolo[2,3-b]pyridin-5-yl)acrylamide] | 1 to 10 µM |
| C=CC(=O)Nc1ccc2c(c1)c(/C=C/c1ccc(Cl)cc1)nn2C1CCCC1 [Compound 8, (E)-N-(3-(4-Chlorostyryl)-1-cyclopentyl-1H-indazol-5-yl)acrylamide] | 1 to 10 µM |
| C=CC(=O)Nc1cnc2c(c1)c(/C=C/c1ccc3c(c1)OCCO3)cn2C [Example 61, (E)-N-(3-(2-(2,3-Dihydrobenzo[b][1,4]dioxin-6-yl)vinyl)-1-methyl-1H-pyrrolo[2,3-b]pyridin-5-yl)acrylamide] | 1 to 10 µM |
| C=CC(=O)Nc1cnc2c(c1)c(-c1cccc(C(F)(F)F)c1)cn2C(F)F [Example 134, N-(1-(Difluoromethyl)-3-(3-(trifluoromethyl)phenyl)-1H-pyrrolo[2,3-b]pyridin-5-yl)acrylamide] | 0.1 to 1 µM |
| C=CC(=O)Nc1cnc2c(c1)c(/C=C/c1ccccc1)cn2C [Compound 45, (E)-N-(1-Methyl-3-styryl-1H-pyrrolo[2,3-b]pyridin-5-yl)acrylamide] | 0.1 to 1 µM |
| C=CC(=O)Nc1cc(F)c2c(c1)c(/C=C/c1ccc(Cl)cc1)cn2C(C)C [Compound 39, (E)-N-(3-(4-Chlorostyryl)-7-fluoro-1-isopropyl-1H-indol-5-yl)acrylamide] | > 10 µM |

Reference: patent publication US20250282735A1, “BICYCLE COMPOUNDS AS TEAD INHIBITOR” (DONG-A ST CO., LTD., priority 2022, published 2025)
